First: Cc1nc(NC(=O)c2ccncc2)sc1C(=O)NCc1ccccc1 [Example 1, N-(5-Benzylcarbamoyl-4-methylthiazol-2-yl)isonicotinamide]
Second: Cc1nc(NC(=O)c2cccnc2)sc1C(=O)NCc1ccccc1 [Example 2.27, N-(5-Benzylcarbamoyl-4-methylthiazol-2-yl)nicotinamide]
The melting point of the first is lower: 171 to 172 °C for the first, 224 to 226 °C for the second.

First: CCC(=O)Nc1nc(C)c(C(=O)NCc2ccccc2)s1 [Example 2.1, 4-Methyl-2-propionylaminothiazole-5-carboxylic Acid Benzylamide]
Second: Cc1nc(NC(=O)C2CC2)sc1C(=O)NCc1ccccc1 [Example 2.2, 2-(Cyclopropanecarbonylamino)-4-methylthiazole-5-carboxylic Acid Benzylamide]
The melting point of the first is lower: 175 to 176 °C for the first, 241 to 243 °C for the second.

Compared with `Cc1nc(NC(=O)c2cccc(Cl)c2)sc1C(=O)NCc1ccccc1` [Example 2.19, 2-(3-Chlorobenzoylamino)-4-methylthiazole-5-carboxylic Acid Benzylamide], `Cc1nc(NC(=O)c2cccc(F)c2)sc1C(=O)NCc1ccccc1` [Example 2.31, 2-(3-Fluorobenzoylamino)-4-methylthiazole-5-carboxylic Acid Benzylamide] is lower in melting point: 178 to 179 °C for the first, 162 to 165 °C for the second.

Compared with `Cc1nc(NC(=O)c2ccc(F)cc2Cl)sc1C(=O)NCc1ccccc1` [Example 2.20, 2-(2-Chloro-4-fluorobenzoylamino)-4-methylthiazole-5-carboxylic Acid Benzylamide], `Cc1nc(NC(=O)c2cc(Cl)ccc2F)sc1C(=O)NCc1ccccc1` [Example 2.30, 2-(5-Chloro-2-fluorobenzoylamino)-4-methylthiazole-5-carboxylic Acid Benzylamide] is higher in melting point: 95 to 96 °C for the first, 175 to 178 °C for the second.

First: Cc1nc(NC(=O)c2ccccc2OC(F)(F)F)sc1C(=O)NCc1ccccc1 [Example 2.21, 4-Methyl-2-(2-trifluoromethoxybenzoylamino)thiazole-5-carboxylic Acid Benzylamide]
Second: Cc1nc(NC(=O)c2cccc(OC(F)(F)F)c2)sc1C(=O)NCc1ccccc1 [Example 2.28, 4-Methyl-2-(3-trifluoromethoxybenzoylamino)thiazole-5-carboxylic Acid Benzylamide]
The melting point of the first is lower: 140 to 141 °C for the first, 230 to 232 °C for the second.

First: Cc1nc(NC(=O)c2cccc(C(F)(F)F)c2)sc1C(=O)NCc1ccccc1 [Example 2.22, 4-Methyl-2-(3-trifluoromethylbenzoylamino)thiazole-5-carboxylic Acid Benzylamide]
Second: Cc1nc(NC(=O)c2cccc(C#N)c2)sc1C(=O)NCc1ccccc1 [Example 2.26, 2-(3-Cyanobenzoylamino)-4-methylthiazole-5-carboxylic Acid Benzylamide]
The melting point of the first is lower: 195 to 196 °C for the first, 207 to 208 °C for the second.

First: Cc1nc(NC(=O)c2cccc3ccccc23)sc1C(=O)NCc1ccccc1 [Example 2.23, 4-Methyl-2-[(naphthalene-1-carbonyl)amino]thiazole-5-carboxylic Acid Benzylamide]
Second: Cc1nc(NC(=O)c2ccc(C#N)cc2)sc1C(=O)NCc1ccccc1 [Example 2.25, 2-(4-Cyanobenzoylamino)-4-methylthiazole-5-carboxylic Acid Benzylamide]
The melting point of the first is lower: 99 to 101 °C for the first, 256 to 258 °C for the second.

First: Cc1nc(NC(=O)c2cc(Cl)cc(Cl)c2)sc1C(=O)NCc1ccccc1 [Example 2.24, 2-(3,5-Dichlorobenzoylamino)-4-methylthiazole-5-carboxylic Acid Benzylamide]
Second: Cc1nc(NC(=O)c2cc(F)cc(F)c2)sc1C(=O)NCc1ccccc1 [Example 2.29, 2-(3,5-Difluorobenzoylamino)-4-methylthiazole-5-carboxylic Acid Benzylamide]
The melting point of the first is higher: 104 to 105 °C for the first, 84 to 86 °C for the second.

Compound `Cc1nc(NC(=O)c2ccc(OC(F)(F)F)cc2)sc1C(=O)NCc1ccccc1` [Example 2.32, 4-Methyl-2-(4-trifluoromethoxybenzoylamino)thiazole-5-carboxylic Acid Benzylamide] has a melting point of 168 to 170 °C.

— US8541457B2, “Aminothiazole derivatives as human stearoyl-CoA desaturase inhibitors” (Xenon Pharmaceuticals Inc., priority 2005, dated 2013)
